From patent US8269010B2, “3-amino-pyridine derivatives for the treatment of metabolic disorders” (Piramal Healthcare Limited, priority 2006, dated 2012)
One block for each molecule: values may come before it.

How the values were obtained:
[1] = test system: insulin resistant adipocytes (3T3 L1); assay: In vitro model exhibiting insulin resistance (IR assay): 14C-2-deoxyglucose uptake; type: cell-based; conditions: glucose uptake; for fold induction at 10 µM: Mus musculus, dexamethasone-induced insulin resistant 3T3 L1 adipocytes, test compound 10 μM/mL, vehicle = 1.0, cut off 1.50 fold, read-out: Fold activity (fold activity over vehicle); for % of Rosiglitazone (comparison with Rosiglitazone): insulin resistant 3T3 L1 adipocytes, test compound 10 μM vs Rosiglitazone 0.1 μM
Description: The assay was designed as in the reference, British Journal of Pharmacology, 130, 351-58, 2000, the disclosure of which is incorporated by reference for the teaching of the assay. The solution of test compound (10 μM/mL) was prepared in DMSO. […] Differentiation into adipocytes was induced by the known methods as described below. (See, also, J. Biol. […] 3T3 L1 fibroblasts were seeded in 24- or 6-well plates at a density of 0.5−2×10^4 cells/well and were allowed to reach maximal confluency. The confluent fibroblasts were exposed to culture medium for 2 days. […] The mature adipocytes were exposed to dexamethasone, 100 nM added in ethanol, in culture medium and incubated for 2 days. […] The test compound was also present during this period. After 3-4 hours, the medium was aspirated and replaced with Kreb's Ringer phosphate (KRP) buffer at pH 7.4 and with human/porcine insulin, 200 nM. The cells were incubated for 30 minutes at 37° C. […] After exactly 5 minutes, the plates were transferred to ice trays and medium was rapidly aspirated. The cell layer was washed twice with ice-cold phosphate buffered saline, (PBS), pH 7.4. […] Non-specific glucose uptake was assayed in wells exposed to cytochalasin B, inhibitor of glucose transport. […] Statistical analysis was performed using unpaired t-test.

Mouse PPARγ = molecular target: T1, Mouse PPARγ (Mus musculus, UniProt P37238); assay: Mouse PPARγ assay (TransAM PPARγ ELISA, 3T3-L1 fibroblasts); type: cell-based; conditions: test compound 50 μM, 72 hrs
T1 construct: endogenous in cells; host or cells: 3T3-L1 fibroblasts
T1 sequence (P37238 1-505): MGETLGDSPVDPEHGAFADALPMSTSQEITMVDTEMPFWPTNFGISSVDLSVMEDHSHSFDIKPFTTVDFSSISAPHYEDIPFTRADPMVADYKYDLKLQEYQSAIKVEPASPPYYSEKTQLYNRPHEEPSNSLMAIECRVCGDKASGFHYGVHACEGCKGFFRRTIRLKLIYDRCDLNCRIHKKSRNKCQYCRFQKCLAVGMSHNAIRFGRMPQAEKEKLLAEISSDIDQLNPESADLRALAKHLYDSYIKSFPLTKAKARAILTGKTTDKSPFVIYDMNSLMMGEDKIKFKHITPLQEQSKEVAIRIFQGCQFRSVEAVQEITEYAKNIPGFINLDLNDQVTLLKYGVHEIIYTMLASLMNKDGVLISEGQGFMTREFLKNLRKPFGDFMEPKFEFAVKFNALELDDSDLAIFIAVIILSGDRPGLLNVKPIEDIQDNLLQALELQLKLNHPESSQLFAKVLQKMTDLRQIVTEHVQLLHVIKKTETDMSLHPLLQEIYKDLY
Description: The assay was designed as in the reference, Blood, 104(5), 1361-8, 2004, the disclosure of which is incorporated by reference for the teaching of the assay.
3T3-L1 fibroblasts were seeded in 6-well plates at a density of 4×10^4 cells/well and cultured in DMEM containing 10% calf serum. After 4-5 days, when the cells become confluent, each of test compound was added (from a 20 mM stock in DMSO) to the final concentration of 50 μM in DMEM supplemented with 10% FCS. […] The plates were incubated for 72 hrs at 37° C. in a CO2 incubator with fresh medium containing test substances added after first 48 hrs. After 72 hrs, the medium was removed; the cell layer was washed and processed for the PPARγ assay as per the instruction of the manufacturer (Active Motif, North America, California, USA). PPARγ activation was determined using 96-well ELISA assay as per the instruction manual (TransAM PPARγ. Active Motif, Cat 0.40196). Assay Readout was absorbance output from spectrophotometer for the mouse PPARγ assay. Luminescence data output was recorded for the human PPARγ assay.

[2] = test system: genetically diabetic db/db BL/6J mice; assay: Screening in db/db BL/6J mice: reduction of plasma glucose levels; type: in vivo; conditions: 10 days
Description: The protocol was designed as in references. • 1.
The screening of compounds was based on their ability to reduce the plasma glucose levels in genetically diabetic db/db BL/6J mice.
Male db/db mice (obtained from the Animal House of Nicholas Piramal Research Centre, Goregaon, Mumbai, India) were used for this study (body weight in the range of 30-40 g and age is 6-8 weeks) and were kept eight per cage in individually ventilated cages at controlled temperature (22±1° C.) and humidity (45±5%). Food and water were provided ad libitum during their laboratory stay, except for four hours fasting prior to blood sample collection. 12 hours light and dark cycle was followed during the whole study period.
After 4 hours fasting blood samples were collected from mice. Mice showing plasma glucose levels between 300 to 500 mg/dl were divided in groups (8-10 per group) such that the mean plasma glucose levels and variation within the group, for each group, is nearly same. After grouping, mice in respective groups received treatment with 0.5% CMC vehicle, standard compound or test compounds for 10 days.
After 4 hours fasting, mice were anaesthetized using isoflurane (inhalation anesthetic), and blood samples were collected through the retro orbital plexus. Collected blood samples were centrifuged at 7000 rpm for 10 minutes at 4° C.; Separated plasma was used for estimation of plasma glucose using diagnostic kits (Diasys, Germany). Plasma glucose levels of treated groups were normalized with control group using the following formula, which accounted for the changes in control group.
Formula used for normalization was *:{1−[…]}×100.

SMILES: O=S(=O)(Nc1cnc(Oc2ccc3ncccc3c2)c(Cl)c1)c1ccc(F)cc1F [Example 48, N-(5-Chloro-6-(quinolin-6-yloxy)pyridin-3-yl)-2,4-difluorobenzenesulfonamide]
fold induction at 10 µM [1]: 1.82 ± 0.13
% of Rosiglitazone (comparison with Rosiglitazone) [1]: 36.7 ± 7.3%

SMILES: O=S(=O)(Nc1cnc(Oc2cc3ccccc3cn2)c(Cl)c1)c1ccc(C(F)(F)F)cc1Cl [Example 20, 2-Chloro-N-(5-chloro-6-(isoquinolin-3-yloxy)pyridin-3-yl)-4(trifluoromethyl)benzene sulfonamide]
fold induction at 10 µM [1]: 2.4 ± 0.68
% of Rosiglitazone (comparison with Rosiglitazone) [1]: 36.7 ± 0.96%

SMILES: N#Cc1ccc(S(=O)(=O)Nc2cnc(Oc3cc4ccccc4cn3)c(Cl)c2)cc1 [Example 5, N-(5-Chloro-6-(isoquinolin-3-yloxy)pyridin-3-yl)-4-cyanobenzenesulfonamide]
fold induction at 10 µM [1]: 2.41 ± 0.12
% of Rosiglitazone (comparison with Rosiglitazone) [1]: 55.1 ± 4.8%

PPARγ activity (% of rosiglitazone) (Mouse PPARγ): 8.18%
SMILES: COc1ccc(S(=O)(=O)Nc2cnc(Oc3cnc4ccccc4c3)c(Cl)c2)cc1OC [Example 30, N-(5-Chloro-6-(quinolin-3-yloxy)pyridin-3-yl)-3,4-dimethoxybenzenesulfonamide]
fold induction at 10 µM [1]: 1.84 ± 0.02
Normalization with control (plasma glucose) ([2]; 50 mpk bid): 76.2 ± 19.2

SMILES: O=S(=O)(Nc1cnc(Oc2cnc3ccccc3c2)c(Cl)c1)c1ccc(F)cc1 [Example 35, N-(5-Chloro-6-(quinolin-3-yloxy)pyridin-3-yl)-4-fluorobenzenesulfonamide]
fold induction at 10 µM [1]: 2.44 ± 0.08
% of Rosiglitazone (comparison with Rosiglitazone) [1]: 62.36 ± 3.51%

SMILES: O=S(=O)(Nc1cnc(Oc2cnc3ccccc3c2)c(Cl)c1)c1ccc(Cl)cc1Cl [Example 27, 2,4-Dichloro-N-(5-chloro-6-(quinolin-3-yloxy)pyridin-3-yl)benzenesulfonamide]
fold induction at 10 µM [1]: 2.01 ± 0.23
% of Rosiglitazone (comparison with Rosiglitazone) [1]: 57 ± 15.64%

SMILES: Cc1ccc(S(=O)(=O)Nc2cnc(Oc3cc4ccccc4cn3)c(Cl)c2)cc1Cl [Example 3, 3-Chloro-N-(5-chloro-6-(isoquinolin-3-yloxy)pyridin-3-yl)-4-methylbenzenesulfonamide]
fold induction at 10 µM [1]: 2.3 ± 0.16
% of Rosiglitazone (comparison with Rosiglitazone) [1]: 52 ± 6.5%

SMILES: COc1ccc(S(=O)(=O)Nc2cnc(Oc3cc4ccccc4cn3)c(Cl)c2)cc1 [Example 24, N-(5-Chloro-6-(isoquinolin-3-yloxy)pyridin-3-yl)-4-methoxybenzenesulfonamide]
fold induction at 10 µM [1]: 1.8 ± 0.32
% of Rosiglitazone (comparison with Rosiglitazone) [1]: 46.2 ± 23.8%
Normalization with control (plasma glucose) ([2]; 150 mpk od): Inactive

PPARγ activity (% of rosiglitazone) (Mouse PPARγ): 12.57%
SMILES: O=S(=O)(Nc1cnc(Oc2cc3ccccc3cn2)c(Cl)c1)c1ccc(Cl)c(Cl)c1 [Example 17, 3,4-Dichloro-N-(5-chloro-6-(isoquinolin-3-yloxy)pyridin-3-yl)benzenesulfonamide]
fold induction at 10 µM [1]: 1.26 ± 0.02
% of Rosiglitazone (comparison with Rosiglitazone) [1]: 21.20 ± 1.5%

SMILES: O=S(=O)(c1ccc(Cl)cc1Cl)N(c1cnc(Oc2cnc3ccccc3c2)c(Cl)c1)S(=O)(=O)c1ccc(Cl)cc1Cl [Example 45, 2,4-Dichloro-N-[(2,4-dichlorophenyl)sulfonyl]-N-[5-chloro-6-(quinolin-3-yloxy)pyridin-3-yl]-benzenesulfonamide]
fold induction at 10 µM [1]: 2.13 ± 0.04
% of Rosiglitazone (comparison with Rosiglitazone) [1]: 59.5 ± 2.26%

SMILES: COc1ccc(OC)c(S(=O)(=O)Nc2cnc(Oc3cc4ccccc4cn3)c(Cl)c2)c1 [Example 19, N-(5-Chloro-6-(isoquinolin-3-yloxy)pyridin-3-yl)-2,5-dimethoxybenzenesulfonamide]
fold induction at 10 µM [1]: 1.67 ± 0.13
% of Rosiglitazone (comparison with Rosiglitazone) [1]: 50 ± 10.12%

PPARγ activity (% of rosiglitazone) (Mouse PPARγ): 18.85%
SMILES: Cc1ccc(S(=O)(=O)Nc2cnc(Oc3cc4ccccc4cn3)c(Cl)c2)cc1 [Example 16, N-(5-Chloro-6-(isoquinolin-3-yloxy)pyridin-3-yl)-4-methylbenzenesulfonamide]
fold induction at 10 µM [1]: 1.6 ± 0.13
% of Rosiglitazone (comparison with Rosiglitazone) [1]: 38.47 ± 7.98%

SMILES: O=S(=O)(Nc1cnc(Oc2cc3ccccc3cn2)c(Cl)c1)c1ccc(Cl)cc1F [Example 13, 4-Chloro-N-(5-chloro-6-(isoquinolin-3-yloxy)pyridin-3-yl)-2-fluorobenzenesulfonamide]
fold induction at 10 µM [1]: 1.4 ± 0.07
% of Rosiglitazone (comparison with Rosiglitazone) [1]: 19.5 ± 3.51%

SMILES: O=S(=O)(Nc1cnc(Oc2cc3ccccc3cn2)c(Cl)c1)c1ccc(OC(F)(F)F)cc1 [Example 18, N-(5-Chloro-6-(isoquinolin-3-yloxy)pyridin-3-yl)-4-(trifluoromethoxy)benzene-sulfonamide]
fold induction at 10 µM [1]: 1.77 ± 0.1
% of Rosiglitazone (comparison with Rosiglitazone) [1]: 65%

PPARγ activity (% of rosiglitazone) (Mouse PPARγ): 8.17%
SMILES: O=S(=O)(Nc1cnc(Oc2cnc3ccccc3c2)c(Cl)c1)c1ccc(F)cc1F [Example 34, N-(5-Chloro-6-(quinolin-3-yloxy)pyridin-3-yl)-2,4-difluorobenzenesulfonamide]
fold induction at 10 µM [1]: 1.7 ± 0.08
% of Rosiglitazone (comparison with Rosiglitazone) [1]: 43.59 ± 4.77%
Normalization with control (plasma glucose) ([2]; 50 mpk bid): 57.2 ± 19.1

SMILES: O=S(=O)(Nc1cnc(Oc2cnc3ccccc3c2)c(Cl)c1)c1ccc(C(F)(F)F)cc1Cl [Example 33, 2-Chloro-N-(5-chloro-6-(quinolin-3-yloxy)pyridin-3-yl)-4-(trifluoromethyl)benzene-sulfonamide]
fold induction at 10 µM [1]: 2.58 ± 0.11
% of Rosiglitazone (comparison with Rosiglitazone) [1]: 68.59 ± 4.81%

PPARγ activity (% of rosiglitazone) (Mouse PPARγ): 0%
SMILES: O=S(=O)(Nc1cnc(Oc2cc3ccccc3cn2)c(Cl)c1)c1ccc(F)cc1Cl [Example 15, 2-Chloro-N-(5-chloro-6-(isoquinolin-3-yloxy)pyridin-3-yl)-4-fluorobenzenesulfonamide]
fold induction at 10 µM [1]: 1.7 ± 0.02
% of Rosiglitazone (comparison with Rosiglitazone) [1]: 45.25 ± 1.04%

SMILES: COc1ccc(S(=O)(=O)Nc2cnc(Oc3cc4ccccc4cn3)c(Cl)c2)cc1OC [Example 22, N-(5-Chloro-6-(isoquinolin-3-yloxy)pyridin-3-yl)-3,4-dimethoxybenzenesulfonamide]
fold induction at 10 µM [1]: 1.76 ± 0.58
% of Rosiglitazone (comparison with Rosiglitazone) [1]: 15.8 ± 1.8%

SMILES: Cc1ccc(S(=O)(=O)Nc2cnc(Oc3cnc4ccccc4c3)c(Cl)c2)cc1 [Example 28, N-(5-Chloro-6-(quinolin-3-yloxy)pyridin-3-yl)-4-methylbenzenesulfonamide]
fold induction at 10 µM [1]: 2.6 ± 0.17
% of Rosiglitazone (comparison with Rosiglitazone) [1]: 71.77 ± 7.48%

SMILES: O=S(=O)(Nc1cnc(Oc2cnc3ccccc3c2)c(Cl)c1)c1ccc(Cl)c(Cl)c1 [Example 29, 3,4-Dichloro-N-(5-chloro-6-(quinolin-3-yloxy)pyridin-3-yl)benzenesulfonamide]
fold induction at 10 µM [1]: 2.01 ± 0.09
% of Rosiglitazone (comparison with Rosiglitazone) [1]: 76 ± 6.11%
